# Experimental data from patent US4259332A, “Novel taurine derivatives” (priority 1979, dated 1981).
# Key:
# [1] = Pharmaco-toxicological tests on laboratory animals (summary); type: in vivo
# [2] = Analgesic activity: convulsions produced by phenylquinone; type: in vivo, mouse; conditions: oral, ASA 200, AST 300 mg/Kg
# Experimental: (A) Test of convulsions produced by phenylquinone injected into mice by the intraperitoneal route. The AST product was administered orally both in the acid form (AST Ac). and as the sodium salt (AST Na). It was compared with a molar equivalent dosage of acetylsalicylic acid and with a carboxymethylcellulose placebo. The convulsions were induced at varying intervals from the oral treatment counting from the first 20 minutes after the injection of phenylquinone.
# [3] = Edema resulting from yeast in the paw of the rat; type: in vivo; conditions: oral, ASA 200, AST 300 mg/Kg
# Experimental: (A) Edema resulting from yeast in the paw of the rat. The AST product was administered orally both in the acid and sodium salt form. It was compared with a molar equivalent dose of acetylsalicylic acid and with carboxymethylcellulose placebo. The edema of the paw was induced with a local injection of the yeast simultaneously with the oral treatment with the drugs, and the volume of the paw was measured in hundredths of milliliter.
# Acute toxicity, mouse = conditions: in vivo
# Experimental: (§1) Tests were carried out both on mice and rats by means of oral, subcutaneous, intraperitoneal and intravenous administration.
# (§2) In the case of oral administration, the product was used in the acid form suspended in an aqueous solution of carboxymethylcellulose, whilst in the case of parenteral administration it was made soluble by salt formation with sodium hydroxide in a physiological solution with a neutral final pH.
# (§3) The results are given in the following table, together with the results found in the literature for acetylsalicylic acid (ASA).
# (§4) Wherever possible, the values of the LD50 were calculated using the probit method; if no mortality took place even at very high dosages, the maximum dosage tested has been given.
# [4] = Edema as a result of nystatin in the rat's paw; type: in vivo; conditions: p.o.
# Experimental: (B) Edema as a result of nystatin in the rat's paw. The long duration of this type of edema enabled the animals to be repeatedly treated in order to ascertain the presence if any of the protracted effect of the AST product also using parenteral administration. The comparison was carried out using a molar equivalent dose of acetylsalicylic acid administrated orally and with the carboxymethylcellulose placebo also only administered orally. The AST product was used in the acid form orally and in the salt form using intraperitoneal administration.
# The dosages of the drugs, always proportional to one another, were varied from day to day, i.e.: the first day a dosage of 200 mg/Kg of ASA and 300 mg/Kg of AST; the second day a double dose of each; the third day a double dose of each divided into two equal components administered with a spacing of 9 hours (10 am and 7 pm respectively); the fourth day no treatment in order to check the length of the effect after the fourth administration.
# The […] was injected into the paw on the night before the first treatment with the drugs and the volume of the paw was measured in hundredths of milliliter.
# Acute toxicity, rat = conditions: in vivo, intravenous, sodium salt solution
# Experimental: as §1, §2, §3, §4
# [5] = type: in vivo, rat; conditions: rat, in vivo, po, 335 mg/kg
# Experimental: Rats which had not been fed for 24 hours were used. The AST product was administered orally as the acid or the sodium salt at a dosage of 335 mg/Kg suspended in 1% carboxymethylcellulose. […] Both the methods of treatment and the observation time were identical for the 3 groups of animals.
# [6] = Antipyretic activity: pyrexia from subcutaneous yeast in the rat; type: in vivo; conditions: p.o., ASA 200, AST 300 mg/Kg
# Experimental: Pyrexia from subcutaneous yeast in the rat. The AST product was administered orally in the acid from and the salt form with sodium, and by the intraperitoneal method in the salt form. It was compared with a molar equivalent dose of acetylsalicylic acid administered orally and with a carboxymethylcellulose placebo. The pyrexia was induced with a subcutaneous injection of yeast on the evening prior to the drug treatment, i.e. 16 hours before.
# [7] = Analgesic activity: mechanical pressure test on inflamed rat's paw; type: in vivo; conditions: oral, ASA 200, AST 300 mg/Kg
# Experimental: (B) Mechanical pressure test on inflamed rat's paw. The AST product was administered both in the acid and sodium salt form by the oral method. It was compared with a molar equivalent dosage of acetylsalicylic acid and with a carboxymethylcellulose placebo. The inflammation of the paw was induced by a local injection of yeast simultaneously with the oral treatment with the drugs and the tenderness was measured in grams of mechanical pressure required to cause a reaction in the animal.
# [8] = Curative effect on intoxication by CCl4; type: in vivo, rat; conditions: 100 mg/kg endoperitoneal 1 h after CCl4; BSF tested after 4 hours
# Experimental: Oral administration to rats of 10 ml/kg of a 10% solution of CCl4 in oil was followed with endoperitoneal administration of 100 mg/kg of Compound B after 1 hour. BSF (50 mg/kg i.v.) in the blood was tested after 4 hours. 5 Animals were used per group, and expressed as percentage change with respect to the control, the Compound B gave a reduction of -34.2.
# [9] = Antilipemic action, Morris, Handler or Nath diet, Compound B; type: in vivo, Wistar rat; conditions: for Bile BSF, percentage change vs control / Liver total lipids, percentage change vs control / Serum total cholesterol, percentage change vs control / Serum total lipids, percentage change vs control / Liver fresh organic weight, percentage change vs control / Serum beta-lipoproteins, percentage change vs control: 45 days, 200 mg/kg orally
# Experimental: Wistar rats were treated for 45 days with a Morris diet, a Handler diet or a Nath diet. Simultaneously with the diet they received each day 200 mg/kg of Compound B or choline (except for the Nath diet) orally.
# [10] = Intoxication by CCl4 and curative treatment; type: in vivo; conditions: 100 mg/kg endoperitoneal on days 1, 2 and 3
# Experimental: On the first day there was oral administration of 10 ml/kg of a 10% solution of CCl4 in oil and simultaneous endoperitoneal administration of 100 mg/kg of Compound B. On the second and third days, there was endoperitoneal administration of 100 mg/kg of Compound B, then testing of BSF (50 mg/kg i.v.) in the blood.
# 5 Animals were used per group, and expressed as pecentage variation with respect to the control, there was a reduction by Compound B of 16.1.
# [11] = Toxicology, oral treatment of mice for 180 days, Compound B; type: in vivo, mouse; conditions: 200 mg/kg orally
# [12] = Protection against hepatic intoxication by CCl4 and cold, Compound B (BSF in blood); type: in vivo; conditions: 500 mg/kg endoperitoneal
# Experimental: Oral administration of 5 ml/kg of a 20% solution of CCl4 in oil, with simultaneous endoperitoneal administration of 500 mg/kg of Compound B, was followed by exposure for 5 hours at 4° C. BSF in the blood (30 mg/kg i.v.) was tested. A comparison product, homocysteinethiolactone (OCT) was employed.
# 10 Animals were treated per group, and the results expressed as percentage change with respect to the controls were as shown in Table 4.
# [13] = BSF bile excretion after CCl4; type: in vivo, rat; conditions: 100 mg/kg endoperitoneal 4 days, CCl4 10% 10 ml/kg
# Experimental: Endoperitoneal administration to rats of 100 mg/kg of Compound B for 4 days was followed on the fourth day, one hour after the last administration, with the rats receiving 10 ml/kg orally of a 10% solution of CCl4 in oil. BSF (5 mg/kg) in the bile was tested.
smiles,measurement,setting,value
"CC(=O)Oc1ccccc1C(=O)OCCN(CCOC(=O)c1ccccc1OC(C)=O)CCS(=O)(=O)O [AST, N,N-di(acetylsalicyloyloxy ethyl)taurine]","Antiinflammatory, analgesic and antipyretic properties (in words)",[1]; compared with acetylsalicylic acid,"marked antiinflammatory, analgesic and antipyretic properties comparable to those of acetylsalicylic acid"
same,Duration of pharmacodynamic activity in comparison with acetylsalicylic acid (in words),[1]; in vivo,more prolonged pharmacodynamic activity
same,Gastric injury (in words),[1]; in vivo,did not exert any appreciable gastric injury
same,Toxicity in comparison with acetylsalicylic acid (in words),[1]; in vivo,less toxic
same,Inhibition % of convulsions in respect of treatment with placebo,[2]; 1h,10%
same,Inhibition % of convulsions in respect of treatment with placebo,[2]; 2h,11%
same,Inhibition % of convulsions in respect of treatment with placebo,[2]; 4h,0%
same,Inhibition of the edema with respect to treatment with placebo,[3]; 1h,42
same,Inhibition of the edema with respect to treatment with placebo,[3]; 3h,38
same,Inhibition of the edema with respect to treatment with placebo,[3]; 5h,48
same,LD50,"Acute toxicity, mouse; intravenous, sodium salt solution",520 mg/kg
same,LD50,"Acute toxicity, mouse; ip, intraperitoneal, sodium salt solution",1300 mg/kg
same,LD50,"Acute toxicity, mouse; oral, acid form in carboxymethylcellulose",5000 mg/kg
same,LD50,"Acute toxicity, mouse; sc, subcutaneous, sodium salt solution",2000 mg/kg
same,% Inhibition of the edema in respect of treatment with placebo,"[4]; 1st day, 2h after 1st dose, ASA 200, AST Ac 300 mg/Kg",0%
same,% Inhibition of the edema in respect of treatment with placebo,"[4]; 1st day, 4h after 1st dose, ASA 200, AST Ac 300 mg/Kg",3%
same,% Inhibition of the edema in respect of treatment with placebo,"[4]; 1st day, 8h after 1st dose, ASA 200, AST Ac 300 mg/Kg",3%
same,% Inhibition of the edema in respect of treatment with placebo,"[4]; 2nd day, 2h after 2nd dose, ASA 400, AST Ac 600 mg/Kg",3%
same,% Inhibition of the edema in respect of treatment with placebo,"[4]; 2nd day, 4h after 2nd dose, ASA 400, AST Ac 600 mg/Kg",2%
same,% Inhibition of the edema in respect of treatment with placebo,"[4]; 2nd day, 8h after 2nd dose, ASA 400, AST Ac 600 mg/Kg",10%
same,% Inhibition of the edema in respect of treatment with placebo,"[4]; 3rd day, 2h after 3rd dose, ASA 200, AST Ac 300 mg/Kg",8%
same,% Inhibition of the edema in respect of treatment with placebo,"[4]; 3rd day, 4h after 3rd dose, ASA 200, AST Ac 300 mg/Kg",7%
same,% Inhibition of the edema in respect of treatment with placebo,"[4]; 3rd day, 8h after 3rd dose, ASA 200, AST Ac 300 mg/Kg",6%
same,% Inhibition of the edema in respect of treatment with placebo,"[4]; 4th day, 13h after 4th dose, ASA 200, AST Ac 300 mg/Kg",3%
same,% Inhibition of the edema in respect of treatment with placebo,"[4]; 4th day, 17h after 4th dose, ASA 200, AST Ac 300 mg/Kg",3%
same,% Inhibition of the edema in respect of treatment with placebo,"[4]; 4th day, 23h after 4th dose, ASA 200, AST Ac 300 mg/Kg",0%
same,LD50,"Acute toxicity, rat",530 mg/kg
same,Alteration of the gastric or intestinal mucosa,[5],did not show any alteration of the gastric or intestinal mucosa
same,% Inhibition of the pyrexia in respect of treatment with placebo,[6]; 1h,18%
same,% Inhibition of the pyrexia in respect of treatment with placebo,[6]; 2h,26%
same,% Inhibition of the pyrexia in respect of treatment with placebo,[6]; 4h,30%
same,% Inhibition of the pyrexia in respect of treatment with placebo,[6]; 6h,25%
same,% Inhibition of the pyrexia in respect of treatment with placebo,[6]; 8h,9%
same,% Inhibition of the hyperalgesia in respect of treatment with placebo,[7]; 1h,47%
same,% Inhibition of the hyperalgesia in respect of treatment with placebo,[7]; 3h,47%
same,% Inhibition of the hyperalgesia in respect of treatment with placebo,[7]; 5h,19%
"COc1cc(C(=O)OCCN(CCOC(=O)c2cc(OC)c(OC)c(OC)c2)CCS(=O)(=O)O)cc(OC)c1OC [Compound B, N,N-di-[2-(3,4,5-trimethoxybenzoyloxy)ethyl]taurine]","BSF in the blood, percentage change vs control (reduction)",[8],-34.2%
same,"Bile BSF, percentage change vs control","[9]; Handler diet, B and Choline",+23.4%
same,"Liver total lipids, percentage change vs control","[9]; Handler diet, B and Choline",-29.1%
same,"Serum total cholesterol, percentage change vs control","[9]; Handler diet, B and Choline",-7.3%
same,"Serum total lipids, percentage change vs control","[9]; Handler diet, B and Choline",+9.1%
same,"Liver fresh organic weight, percentage change vs control","[9]; Handler diet, second B column",-13.3%
same,"Liver fresh organic weight, percentage change vs control",[9]; Handler diet,-24.9%
same,"Liver total lipids, percentage change vs control",[9]; Handler diet,-37.7%
same,"Serum total cholesterol, percentage change vs control",[9]; Handler diet,-6.3%
same,"Serum total lipids, percentage change vs control",[9]; Handler diet,-15.9%
same,"Bile BSF, percentage change vs control",[9]; Morris diet,+23.8%
same,"Liver total lipids, percentage change vs control",[9]; Morris diet,-11.5%
same,"Serum beta-lipoproteins, percentage change vs control",[9]; Morris diet,-23.7%
same,"Serum total cholesterol, percentage change vs control",[9]; Morris diet,-23.2%
same,"Serum total lipids, percentage change vs control",[9]; Morris diet,-22.4%
same,"Liver total lipids, percentage change vs control",[9]; Nath diet,-23.4%
same,"Serum beta-lipoproteins, percentage change vs control",[9]; Nath diet,-29.7%
same,"Serum total cholesterol, percentage change vs control",[9]; Nath diet,-35.2%
same,"Serum total lipids, percentage change vs control",[9]; Nath diet,-20.6%
same,Oral absorption (deduced from diet tests),"[9]; oral, powder with the diet",good oral absorption
same,"BSF in the blood, percentage variation vs control (reduction)",[10],16.1%
same,Mortality,[11],No mortality occurred
same,"Hepatic intoxication protection, percentage change of BSF in blood vs controls",[12]; test number 1,-27.5%
same,"Hepatic intoxication protection, percentage change of BSF in blood vs controls",[12]; test number 2,-17.0%
same,"BSF bile excretion, percentage of excretion",[13]; 30 min.,44.1%
same,"BSF bile excretion, percentage of excretion",[13]; 60 min.,50.9%
